Assay results reported in patent US12052991B2, “Substituted pyridinyloxybenzenes and salts thereof and use thereof as herbicidal agents” (Bayer Aktiengesellschaft, priority 2018, dated 2024).

Legend:
Assay type in all cases: in vivo
[1] = system: Matricaria inodora (MATIN); test: Herbicidal post-emergence action (Table B7); details: rated visually after about 3 weeks, 100% = plants have died, 0% = like control plants
How it was run: (§1)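 Greenhouse pot-grown weeds in sandy loam, sprayed at the one-leaf stage (2–3 weeks post-sowing) with WP or EC formulations plus 0.5% additive at 600 l/ha water, at 1280 or 320 g/ha. Visual % activity versus untreated controls rated about 3 weeks later (100% = dead).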

Setaria viridis (SETVI) = test: Herbicidal pre-emergence action, test D, single sowings (Table D3); details: dosage 80 g/ha, scored after about 3 weeks
Source text: (§2) Seeds of monocotyledonous and dicotyledonous weed plants were laid out in plastic or organic plant pots (single sowings with one species of mono- or dicotyledonous weed plant per pot) and covered with soil. The compounds of the invention, formulated in the form of wettable powders (WP) or as emulsion concentrates (EC), were then applied to the surface of the covering soil as aqueous suspension or emulsion with addition of 0.5% additive at a water application rate equivalent to 600 l/ha (converted). After the treatment, the pots were placed in a greenhouse and kept under good growth conditions for the test plants. After about 3 weeks, the effect of the preparations was scored visually in comparison with untreated controls as percentages. For example, 100% activity=the plants have died, 0% activity=like control plants. Tables D1 to D8 below show the effects of selected compounds of the general formula (I) according to Table 1 on various harmful plants and an application rate corresponding to 80 g/ha, which were obtained by the experimental procedure mentioned above.

[2] = system: Matricaria inodora (MATIN); test: Herbicidal pre-emergence action, test D, single sowings (Table D6); details: dosage 80 g/ha, scored after about 3 weeks
Source text: as §2

viola tricolor (VIOTR) = test: Herbicidal pre-emergence action, test D, single sowings (Table D7); details: dosage 80 g/ha, scored after about 3 weeks
Source text: as §2

[3] = system: corn (ZEAMX, var. Aventura); test: Pre-emergence crop plant compatibility (Table E1); details: dosage 80 g/ha, scored after about 3 weeks, 0% = like control plants
Source text: as §2, with “crop” for “weed”, “placed” for “laid out”, “pots” for “pots (single sowings with one species of mono- or dicotyledonous weed plant per pot)”, “plants.” for “plants. Tables D1 to D8 below show the effects of selected compounds of the general formula (I) according to Table 1 on various harmful plants and an application rate corresponding to 80 g/ha, which were obtained by the experimental procedure mentioned above.”

[4] = system: wheat (TRZAS, var. Triso); test: Pre-emergence crop plant compatibility (Table E1); details: dosage 80 g/ha, scored after about 3 weeks, 0% = like control plants
Source text: as §2, with “crop” for “weed”, “placed” for “laid out”, “pots” for “pots (single sowings with one species of mono- or dicotyledonous weed plant per pot)”, “plants.” for “plants. Tables D1 to D8 below show the effects of selected compounds of the general formula (I) according to Table 1 on various harmful plants and an application rate corresponding to 80 g/ha, which were obtained by the experimental procedure mentioned above.”

[5] = system: harmful plants ALOMY, DIGSA, SETVI, ABUTH, AMARE, MATIN, VIOTR and VERPE; test: Herbicidal pre-emergence action (test D), summary of Tables D1-D8; details: application rate of 80 g of active ingredient per hectare; summary in words
Source text: as §2, with “plants.” for “plants. Tables D1 to D8 below show the effects of selected compounds of the general formula (I) according to Table 1 on various harmful plants and an application rate corresponding to 80 g/ha, which were obtained by the experimental procedure mentioned above.”
Tables D1 to D8 below show the effects of selected compounds of the general formula (I) according to Table 1 on various harmful plants and an application rate corresponding to 80 g/ha, which were obtained by the experimental procedure mentioned above.

[6] = system: Digitaria sanguinalis (DIGSA); test: Herbicidal post-emergence action (Table B10); details: visual rating about 3 weeks after treatment, 100% = plants have died, 0% = like control plants
How it was run: as §1

Veronica persica (VERPE) [7] = test: Herbicidal post-emergence action (Table B12); details: visual rating about 3 weeks after treatment, 100% = plants have died, 0% = like control plants
How it was run: as §1

[8] = system: Matricaria inodora (MATIN); test: Herbicidal pre-emergence action, test C (Table C7); details: visual scoring after about 3 weeks, 100% = plants have died, 0% = like control plants
How it was run: (§3)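 % herbicidal effect, visual, vs untreated; 0% = as control, 100% = plants dead. Scored ~3 wk post-application. Rate 1280 or 320 g/ha onto covering soil pre-emergence.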

[9] = system: Alopecurus myosuroides (ALOMY); test: Herbicidal pre-emergence action, test C (Table C9); details: visual scoring after about 3 weeks, 100% = plants have died, 0% = like control plants
How it was run: as §3

[10] = system: Digitaria sanguinalis (DIGSA); test: Herbicidal pre-emergence action, test C (Table C10); details: visual scoring after about 3 weeks, 100% = plants have died, 0% = like control plants
How it was run: as §3

Bassia scoparia (KCHSC) = test: Herbicidal pre-emergence action, test C (Table C11); details: visual scoring vs untreated controls
How it was run: as §3

Veronica persica (VERPE) [11] = test: Herbicidal pre-emergence action, test C (Table C12); details: visual scoring vs untreated controls
How it was run: as §3

| SMILES | Post-emergence action against Matricaria inodora (MATIN) ([1]; 1280 g/ha) [%] | Pre-emergence action against Setaria viridis (SETVI) (Setaria viridis (SETVI)) [%] | Pre-emergence action against Matricaria inodora (MATIN) [2] [%] | Pre-emergence action against viola tricolor (VIOTR) (viola tricolor (VIOTR)) [%] | Crop plant compatibility in pre-emergence, ZEAMX (damage to corn) [3] [%] | Crop plant compatibility in pre-emergence, TRZAS (damage to wheat) [4] [%] | herbicidal activity against the harmful plants of Tables D1-D8 in pre-emergence treatment [5] | Post-emergence action against Digitaria sanguinalis (DIGSA) ([6]; dosage 320 g/ha) [%] | Post-emergence action against Digitaria sanguinalis (DIGSA) ([6]; dosage 1280 g/ha) [%] | Post-emergence action against Veronica persica (VERPE) (Veronica persica (VERPE) [7]; dosage 320 g/ha) [%] | Post-emergence action against Veronica persica (VERPE) (Veronica persica (VERPE) [7]; dosage 1280 g/ha) [%] | Pre-emergence action against Matricaria inodora (MATIN) ([8]; dosage 320 g/ha) [%] | Pre-emergence action against Matricaria inodora (MATIN) ([8]; dosage 1280 g/ha) [%] | Pre-emergence action against Alopecurus myosuroides (ALOMY) ([9]; dosage 1280 g/ha) [%] | Pre-emergence action against Digitaria sanguinalis (DIGSA) ([10]; dosage 320 g/ha) [%] | Pre-emergence action against Digitaria sanguinalis (DIGSA) ([10]; dosage 1280 g/ha) [%] | Pre-emergence action against Bassia scoparia (KCHSC) (Bassia scoparia (KCHSC); dosage 1280 g/ha) [%] | Pre-emergence action against Veronica persica (VERPE) (Veronica persica (VERPE) [11]; dosage 320 g/ha) [%] | Pre-emergence action against Veronica persica (VERPE) (Veronica persica (VERPE) [11]; dosage 1280 g/ha) [%] | Pre-emergence action against Alopecurus myosuroides (ALOMY) ([9]; dosage 320 g/ha) [%] | also measured |
| --- | --- | --- | --- | --- | --- | --- | --- | --- | --- | --- | --- | --- | --- | --- | --- | --- | --- | --- | --- | --- | --- |
| Fc1cccc(Oc2ccc(Cl)cn2)c1-c1cc(C(F)F)no1 [Example 1-17] | 100 | 100 | 100 | 100 | 0 | 20 | very good herbicidal activity |  |  |  |  |  |  |  |  |  |  |  |  |  | Post-emergence action against Matricaria inodora (MATIN) ([1]; 320 g/ha): 100% |
| Cc1cccc(Oc2ccc(Cl)cn2)c1-c1cc(C(F)F)no1 [Example 1-18, 5-[2-[(5-Chloro-2-pyridyl)oxy]-6-methylphenyl]-3-(difluoromethyl)isoxazole] | 100 |  |  |  |  |  |  | 100 | 100 | 100 | 100 | 100 | 100 | 90 | 100 | 100 | 90 | 100 | 100 |  |  |
| Cc1cccc(Oc2ncc(Cl)cc2F)c1-c1cc(C(F)F)no1 [Example 1-20] | 100 |  |  |  |  |  |  | 100 | 100 | 100 | 100 | 100 | 100 | 100 | 90 | 100 | 90 | 100 | 100 | 90 |  |
| FC(F)c1cc(-c2ccccc2Oc2ccc(Cl)cn2)on1 [Example 1-35] |  | 100 | 80 | 90 | 10 | 0 | very good herbicidal activity | 90 | 100 | 100 | 100 | 90 | 100 | 90 |  | 100 | 90 | 100 | 100 |  |  |
| Fc1cc(Cl)cnc1Oc1ccccc1-c1cc(C(F)F)no1 [Example 1-36] |  | 80 | 100 | 100 | 20 | 0 | very good herbicidal activity | 100 | 100 | 100 | 100 |  |  | 100 | 100 | 100 | 90 | 100 | 100 | 90 |  |
| Fc1cccc(Oc2ccc(Br)cn2)c1-c1cc(C(F)F)no1 [Example 1-40] | 100 |  |  |  |  |  |  | 100 | 100 | 100 | 100 | 100 | 100 | 100 | 100 | 100 | 100 | 100 | 100 | 100 | Post-emergence action against Matricaria inodora (MATIN) ([1]; 320 g/ha): 100%; Pre-emergence action against Bassia scoparia (KCHSC) (Bassia scoparia (KCHSC); dosage 320 g/ha): 100% |
